From ChEMBL document CHEMBL1121600, “Inhibitors of phenylethanolamine N-methyltransferase and epinephrine biosynthesis. 2. 1,2,3,4-Tetrahydroisoquinoline-7-sulfonanilides” (J Med Chem, 1980)

Legend:
Format in all cases: organism-based
[1] = biological target: T1, Phenylethanolamine N-methyltransferase (Mus musculus) (UniProt P40935); assay: Phenylethanolamine N-Methyltransferase inhibition assay in a 7-day mouse study was determined by epinephrine level at 25 mg/kg dose; parameters: dose 25 mg/kg
T1 sequence (whole entry): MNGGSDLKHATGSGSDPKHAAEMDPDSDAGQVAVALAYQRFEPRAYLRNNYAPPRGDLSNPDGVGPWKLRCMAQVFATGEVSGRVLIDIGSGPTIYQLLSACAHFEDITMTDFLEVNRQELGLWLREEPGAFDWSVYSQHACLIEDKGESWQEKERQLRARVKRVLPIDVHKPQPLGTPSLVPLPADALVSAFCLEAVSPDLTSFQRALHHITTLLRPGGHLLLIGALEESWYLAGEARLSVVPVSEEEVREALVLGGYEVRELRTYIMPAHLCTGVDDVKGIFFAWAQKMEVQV

[2] = biological target: T1, Phenylethanolamine N-methyltransferase (Mus musculus); assay: Phenylethanolamine N-Methyltransferase inhibition assay in a 7-day mouse study was determined by epinephrine level at 50 mg/kg dose; parameters: dose 50 mg/kg
[3] = biological target: T1, Phenylethanolamine N-methyltransferase (Mus musculus); assay: Phenylethanolamine N-Methyltransferase inhibition assay in a 7-day mouse study was determined by epinephrine level at 100 mg/kg dose; parameters: dose 100 mg/kg
[4] = biological target: T2, Phenylethanolamine N-methyltransferase (Homo sapiens) (UniProt P11086); assay: Epinephrine to norepinephrine ratio at 100 mg/kg dose; parameters: dose 100 mg/kg; details: Oryctolagus cuniculus
T2 sequence (whole entry): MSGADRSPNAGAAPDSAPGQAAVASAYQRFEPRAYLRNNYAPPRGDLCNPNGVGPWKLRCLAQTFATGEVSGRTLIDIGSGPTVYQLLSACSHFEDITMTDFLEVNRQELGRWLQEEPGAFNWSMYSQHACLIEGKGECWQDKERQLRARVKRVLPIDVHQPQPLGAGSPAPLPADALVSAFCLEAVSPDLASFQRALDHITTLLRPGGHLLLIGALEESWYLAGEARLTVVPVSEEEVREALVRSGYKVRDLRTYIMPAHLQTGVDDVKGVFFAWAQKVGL

| SMILES | Epinephrine level [1] | Epinephrine level [2] | Epinephrine level [3] | Ratio [4] |
| --- | --- | --- | --- | --- |
| O=S(=O)(Nc1ccc(Cl)cc1)c1ccc2c(c1)CNCC2 | 8 |  |  |  |
| NS(=O)(=O)c1ccc2c(c1)CNCC2 | 6.7 | 5.9 | 5.8 |  |
| O=S(=O)(Nc1ccc(Br)cc1)c1ccc2c(c1)CNCC2 |  |  | 7 | 2.1 |
